Assay results reported in ChEMBL document CHEMBL2202993, “Non-proteinogenic amino acids in the pThr-2 position of a pentamer peptide that confer high binding affinity for the polo box domain (PBD) of polo-like kinase 1 (Plk1)” (Bioorg Med Chem Lett, 2012).
Numbered stars: 1 amine (or outer) side, 2 acyl side, 3 side chain; on linkers, the order of the positions; unused ones are H or OH. Square brackets hold non-standard residues; d marks the D form. Peptide text beside a SMILES is read from it. X2 = O=C([C@H](Cc1cn(CCCCCCCCc2ccccc2)c2ccccc12)N[*:1])[*:2]; X1 = O=C([C@H](Cc1cn(CCCCCCCCc2ccccc2)cn1)N[*:1])[*:2]; pT = C[C@@H](OP(=O)(O)O)[C@H](N)C(=O)O

Biological target: Serine/threonine-protein kinase PLK1 (Homo sapiens, UniProt P53350)
Experiment: Competitive binding affinity to GFP-HA-fused PLK1 polo box domain expressed in HEK293A cells using biotinylated p-T38 peptide as substrate after 1 hr by ELISA
Set-up: species or system HEK293-A

Serine/threonine-protein kinase PLK1, sequence (P53350 whole entry, the tested form may be a part): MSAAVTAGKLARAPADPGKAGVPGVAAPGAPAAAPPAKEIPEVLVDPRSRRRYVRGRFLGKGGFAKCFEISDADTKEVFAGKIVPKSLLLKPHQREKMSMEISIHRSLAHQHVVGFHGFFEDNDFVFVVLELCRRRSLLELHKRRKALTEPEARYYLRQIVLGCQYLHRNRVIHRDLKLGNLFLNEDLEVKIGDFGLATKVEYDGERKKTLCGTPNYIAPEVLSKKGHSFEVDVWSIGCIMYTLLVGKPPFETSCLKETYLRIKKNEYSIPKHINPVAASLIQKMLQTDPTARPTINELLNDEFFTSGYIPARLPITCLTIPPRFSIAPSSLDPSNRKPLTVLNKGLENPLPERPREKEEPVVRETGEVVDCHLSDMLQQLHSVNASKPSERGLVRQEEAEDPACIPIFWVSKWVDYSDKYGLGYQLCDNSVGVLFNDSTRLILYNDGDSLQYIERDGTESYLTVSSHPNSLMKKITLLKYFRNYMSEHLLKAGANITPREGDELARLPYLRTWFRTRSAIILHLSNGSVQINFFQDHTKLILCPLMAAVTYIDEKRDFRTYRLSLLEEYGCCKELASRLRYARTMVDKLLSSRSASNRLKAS

## CC(=O)N1CCC[C@H]1C(=O)N[C@@H](CC(C)C)C(=O)N[C@@H](Cc1cn(CCCCCCCCc2ccccc2)cn1)C(=O)N[C@@H](CO)C(=O)N[C@H](C(N)=O)[C@@H](C)OP(=O)(O)O (Ac-PL[X1]S[pT]-NH2)
  IC50: 0.32 µM

## CC(=O)N1CCC[C@H]1C(=O)N[C@@H](CC(C)C)C(=O)N[C@@H](Cc1cn(CCCCCCCCc2ccccc2)c2ccccc12)C(=O)N[C@@H](CO)C(=O)N[C@H](C(N)=O)[C@@H](C)OP(=O)(O)O (Ac-PL[X2]S[pT]-NH2)
  IC50: 9.3 µM
